Experiments:
resting platelets = assay: Platelet aggregation induced by peptide in resting washed platelets (activation); assay type: cell-based, human (healthy volunteers); conditions: for Activation: platelet aggregation in resting platelets after 6 minutes incubation with peptide, pal-peptides 20 μM, tat-peptides 50 μM, optical density, aggregometer, mean, n>=3, unit assumed; for Aggregation before TRAP activation, donor h: replicate donor h; for Aggregation before TRAP activation, donor h / Aggregation before TRAP activation, donor i / Aggregation before TRAP activation, donor j: pal 20 μM, tat 50 μM; for Aggregation before TRAP activation, donor i: replicate donor i; for Aggregation before TRAP activation, donor j: replicate donor j
Method: (§1) Blood was drawn from healthy volunteers into a syringe containing a final volume of 15% Acid Citrate Dextrose (ACD). The blood/ACD mixture was then aliquoted into 15 ml Cellstar tubes, at volumes of 5ml per tube, and centrifuged at 150 rcf for 10 minutes to obtain platelet rich plasma (PRP). PRP was then transferred to a 50ml tube using a pipette. The pH was then adjusted to 6.5. Prostaglandin (PGE1) was then added with a final concentration of 1μM. The PRP was then centrifuged at 750 rcf. After centrifugation the platelet poor plasma (PPP) was discarded and the pellet was resuspended in buffer A (6 mM dextrose, 130 mM NaCl, 9 mM NaHCO3, 10 mM sodium citrate, 10 mM Tris base, 3 mM KCl, 0.81 mM KH2PO4 and 0.9 mM MgCl26H2O, pH 7.4). A platelet concentration of 3x10^5/μl or 1x10^6/μl was obtained by dilution depending on the experiment in which they were used. Platelets were left to rest for 45 minutes and supplemented with 1.8mM calcium chloride prior to use.
(§2) A platelet concentration of 3x10^5 /μl was used when performing standard aggregations and a concentration of 1x10^6 /μl was used for sample preparation for western blot analysis. The extent of platelet aggregation was measured by quantifying the optical density of the samples using the Bio-Data PAP-8 aggregometer (platelet aggregation profiler, Horsham, PA, USA). A temperature of 37°C was maintained and samples were stirred using magnets spinning at 1100 rpm. 200 μl of washed platelets was added to each aggregation tube. Different volumes of buffer, peptide and TRAP were added to achieve the desired concentrations. Peptide/buffer was added to each well after two minutes. TRAP, with a final concentration depending on the experiment, was added 6 minutes later and data was collected for an additional 7 minutes.

TRAP-activated platelets = assay: Inhibition of TRAP-induced platelet aggregation after pre-incubation with peptide; assay type: cell-based, human (healthy volunteers); conditions: for Platelet aggregation remaining after TRAP (low = inhibition): platelet aggregation induced by 4 μM TRAP in platelets pre-incubated with peptide (low value = inhibition), pal-peptides 20 μM, tat-peptides 50 μM, mean, n>=3; for Aggregation after TRAP activation, donor h: replicate donor h; for Aggregation after TRAP activation, donor h / Aggregation after TRAP activation, donor i / Aggregation after TRAP activation, donor j: TRAP 4 μM, pal 20 μM, tat 50 μM; for Aggregation after TRAP activation, donor i: replicate donor i; for Aggregation after TRAP activation, donor j: replicate donor j
Method: as §1, §2

| Substance | Activation (resting platelets) | Aggregation before TRAP activation, donor h (resting platelets) | Aggregation before TRAP activation, donor i (resting platelets) | Aggregation before TRAP activation, donor j (resting platelets) | Platelet aggregation remaining after TRAP (low = inhibition) (TRAP-activated platelets) | Aggregation after TRAP activation, donor h (TRAP-activated platelets) | Aggregation after TRAP activation, donor i (TRAP-activated platelets) | Aggregation after TRAP activation, donor j (TRAP-activated platelets) |
| --- | --- | --- | --- | --- | --- | --- | --- | --- |
| tat-EGERALPSIPKLAN-(NH2) [tat-FAK_1, tat peptide from PTK2/FAK1] | 4% | 4 | 4 | 4 | 72 | 76 | 66 | 74 |
| tat-EPDFPPPPPDLE-(NH2) [tat-VCL, tat peptide from VCL] | 4% | 4 | 4 | 4 | 70 | 68 | 67 | 77 |
| tat-GRDKYKTLRQIRQGNTKQRIDEFESM [tat-MSN, tat peptide from MSN] | 3% | 3 | 3 | 4 | 73 | 76 | 68 | 75 |
| tat-KRAPQMDWSKKNELFSNL [tat-NHERF1, tat peptide from NHERF1] | 3% | 4 | 3 | 3 | 70 | 71 | 66 | 75 |
| tat-SKPIGPDDAIDALSSDFTS-(NH2) [tat-CAST_2, tat peptide from calpastatin (CAST)] | 3% | 3 | 4 | 4 | 74 | 78 | 69 | 76 |
| tat-SVSETDDpYAEIIDE-(NH2) [tat-FAK_2, tat peptide from PTK2/FAK1, phosphorylated tyrosine] | 3% | 4 | 3 | 4 | 71 | 77 | 61 | 76 |

— paper PMC6349357, “Computational and experimental analysis of bioactive peptide linear motifs in the integrin adhesome” (PLoS ONE, 2019)
